The values that follow come from patent publication US11066443B2 (Hoffmann-La Roche Inc., priority 2017, dated 2021).

The test system of one test is P. aeruginosa ATCC27853. The experiment in a line: Antimicrobial susceptibility testing: microbroth minimum inhibitory concentration (MIC) determination. The test is classed as cell-based. Conditions: Pseudomonas aeruginosa, CLSI microbroth dilution in CAMHB, read after 20 hours, lowest concentration inhibiting >=80% of growth. On the procedure:
The in vitro antimicrobial activity of the compounds was determined through microbroth minimum inhibitory concentration (MIC) methodology performed according to the Clinical and Laboratory Standard Institute guidelines (CLSI—M07-A9 Jan. 2012. Methods for Dilution Antimicrobial Susceptibility Tests for Bacteria That Grow Aerobically; Approved Standard—Ninth Edition, Clinical and Laboratory Standards Institue, Wayne/PA, US and the CLSI—M100-S24 Jan. 2014. Performance Standards for Antimicrobial Susceptibility Testing; Approved Standard—Fourth Informational Supplement, Clinical and Laboratory Standards Institue, Wayne/PA, US).
The compound stock solution was freshly prepared at 10× the required top concentration for the MIC determination, i.e. at 1280 mg/L, by reconstitution of the dry compound in 50:50 water:DMSO.
Polystyrene non-treated 96 wells microtiter plates were used for preparing panel containing compound serial twofold diluted at two times the final testing concentration (e.g. range from 64 to 0.06 μg/ml) in cation adjusted Mueller Hinton broth medium (CAMHB).
Inoculum was prepared by the “direct colony suspension method”. Colonies of P. aeruginosa ATCC27853 or clinical isolates were suspended in saline solution and adjusted to 0.5 McFarland, diluted 100 times in CAMHB broth and 50 μl added to each well (final concentration of cells ˜5×10^(5) CFU/ml and Final volume/well of 100 μl). Microtiter plates were sealed and incubated at 35±2° C.
MICs values were read after 20 hours of incubation and recorded as the lowest concentration of the antimicrobial that inhibits more or equal to 80% of growth of the organism as detected by the unaided eye and using a microtiter plate optical density reader (OD 600 nm).
Table 1 provides the minimum inhibitory concentration (MIC) in microgram per milliliter of the compounds of present invention obtained against the P. aeruginosa ATCC27853 (Table 1).
(Broth dilution looks for growth in wells or tubes with falling amounts of substance.)

Another test has as its system P. aeruginosa NCTC11454. Put plainly: Antimicrobial susceptibility testing: 50% growth inhibitory concentration (IC50) determination. It is filed as cell-based. To be noted: Pseudomonas aeruginosa, Iso-Sensitest broth, OD 600 nm every 20 minutes over 16h, growth inhibition during logarithmic growth. A digest of the protocol:
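Twofold dilutions (e.g. 50–0.097 μM final) in Iso-Sensitest broth were inoculated with P. aeruginosa NCTC11454 at ~5×10^5 CFU/mL and incubated at 35±2 °C. OD600 was read every 20 min over 16 h. IC50 was derived from growth inhibition in the logarithmic phase.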

Molecules are shown by their SMILES. Values after ≈ are worked out from the molar mass of the structure shown.

In general, MIC refers to the lowest concentration found to suppress growth. A word on the IC50: it is the concentration that gives 50% inhibition. A higher IC50 goes with weaker potency.

In the case of `Cc1[nH]c2ccccc2c1C[C@H]1C(=O)NCc2cc(Cl)ccc2Sc2ccccc2CN[C@@H](CCCN)C(=O)N[C@@H](CCCCN)C(=O)N1C` [Example 15, (12S,15S,18S)-15-(4-Amino-butyl)-18-(3-amino-propyl)-6-chloro-13-methyl-12-(2-methyl-1H-indol-3-ylmethyl)-2-thia-10,13,16,19-tetraaza-tricyclo[19.4.0.0*3,8*]pentacosa-1(21),3,5,7,22,24-hexaene-1,14,17-trione], the MIC in the test on P. aeruginosa ATCC27853 is 32 µg/mL (≈ 44.5 µM). In the test with P. aeruginosa NCTC11454, this compound registered an IC50 of 32 µM.
Taken in the same sequence, the figures for `CN1C(=O)[C@H](CCCCN)NC(=O)[C@H](CCCN)NCc2ccccc2Sc2c(cc(-c3ccccc3)cc2C(F)(F)F)CNC(=O)[C@@H]1Cc1c[nH]c2ccccc12` [Example 28, (12S,15S,18S)-15-(4-Amino-butyl)-18-(3-amino-propyl)-12-(1H-indol-3-ylmethyl)-13-methyl-6-phenyl-4-trifluoromethyl-2-thia-10,13,16,19-tetraaza-tricyclo[19.4.0.0*3,8*]pentacosa-1(25),3,5,7,21,23-hexaene-11,14,17-trione] were 8 µg/mL (≈ 9.83 µM) and 8.8 µM.
The like results for `CN1C(=O)[C@H](CCCCN)NC(=O)[C@H](CCCN)NCc2ccccc2Sc2c(Cl)cc(-c3cn(C)cn3)cc2CNC(=O)[C@@H]1Cc1c[nH]c2ccccc12` [Example 37, (12S,15S,18S)-15-(4-Amino-butyl)-18-(3-amino-propyl)-4-chloro-12-(1H-indol-3-ylmethyl)-13-methyl-6-(1-methyl-1H-imidazol-4-yl)-2-thia-10,13,16,19-tetraaza-tricyclo[19.4.0.0*3,8*]pentacosa-1(25),3,5,7,21,23-hexaene-11,14,17-trione] were, in that order, 32 µg/mL (≈ 40.8 µM) and 95.7 µM.
